Assay results published in US4179464A, “Preparation of N-(phosphonoacetyl)-L-aspartic acid” (priority 1978, dated 1979).
“Also recorded” adds a separate entry of the source. Counter-ions that a name gives are not always drawn. Like-named read-outs stand apart in the source and are kept apart here.

How the values were obtained:
tumor systems = assay: preliminary in vivo screening of PALA esters; settings: relative to tetrasodium PALA
hygroscopic character = type: physicochemical; settings: for physical state after moisture uptake: atmospheric moisture, eventually
Method: (§1) The following determinations were made as to the physical properties of the disodium PALA. Except for the test for stability, these tests were carried out on material free of solvent contamination.
Hygroscopic Character. Tetrasodium PALA absorbs atmospheric moisture 1.5 times faster than the disodium salt.

solubility = type: physicochemical
Method: as §1

[1] = type: physicochemical
Method: as §1
pH. A 2% solution of the disodium salt in water has a pH of 4.08.

[2] = stability on drying in vacuo at 140° (NMR, TLC); type: physicochemical; settings: dried in vacuo at 140° for 15.5 hours, sample containing acetic acid and ethanol
Method: as §1
Stability. A sample of disodium PALA was dried in vacuo at 140° for 15.5 hours. […] This is believed to be an ester produced at the elevated temperature in the presence of ethanol and acetic acid.

expected tumor systems = assay: activity of tetrasodium PALA samples in tumor systems; type: in vivo
Source text: In spite of the above mentioned problems involving the consistency of elemental analyses and the low hydrogen values, the tetrasodium PALA samples were characterized as highly pure materials by nmr, optical rotation (comparison with literature value), and thin layer chromatography (homogeneous in four different solvent systems).

Lewis Lung tumor = settings: NCI screening program, data through Aug. 31, 1976; cited from earlier work
[3] = test system: pyrimidine nucleotide biosynthesis; settings: Stark et al. (1974); cited from earlier work
P388 tumor = settings: NCI screening program, data through Aug. 31, 1976; cited from earlier work
B16 tumor = settings: NCI screening program, data through Aug. 31, 1976; cited from earlier work
[4] = test system: aspartate transcarbamylase; settings: Stark et al., J. Biol. Chem., 246, 6599 (1971); cited from earlier work

## O=C(CP(=O)(O)O)N[C@@H](CC(=O)OCc1ccccc1)C(=O)OCc1ccccc1 [XI, L-Aspartic acid, N-(phosphonoacetyl)-, dibenzyl ester, complexed with cyclohexylamine]
Tumor systems
  fold less active than tetrasodium PALA: approximately 100 fold
Hygroscopic character
  hygroscopicity (in words): apparently less hygroscopic than (X)

## O=C([O-])C[C@H](NC(=O)CP(=O)(O)O)C(=O)[O-].[Na+].[Na+] [disodium PALA, L-Aspartic acid, N-(phosphonoacetyl)-, disodium salt]
Hygroscopic character
  physical state after moisture uptake: eventually take up enough moisture so as to lose their solid characteristics
Hygroscopic character; disodium salt
  hygroscopicity (in words): less hygroscopic than tetrasodium PALA
Hygroscopic character; listed as Disodium PALA, disodium salt
  hygroscopicity (in words): less hygroscopic than the tetrasodium compound
solubility; water
  water solubility (in words): extremely water soluble
solubility; water, solvent-free material
  solubility: > 950 mg/mL
[1]; 2% solution in water
  pH of aqueous solution: 4.08
[2]
  structural integrity by NMR: retained its structural integrity
[2]; believed to be an ester
  change in thin layer chromatography: formation of a new, faster-running spot

## O=C(O)C[C@H](NC(=O)CP(=O)(O)O)C(=O)O [calcium salt of PALA]
solubility; water
  water solubility (in words): dissolves in water permitting ready formulation
solubility; water, results tentative
  rate of dissolution in water: dissolves relatively slowly

## O=C(CP(=O)(O)O)N[C@@H](CC(=O)OCc1ccccc1)C(=O)OCc1ccccc1 [IV, L-Aspartic acid, N-(phosphonoacetyl)-, dibenzyl ester]
Hygroscopic character; listed as dibenzyl PALA
  hygroscopicity (in words): hygroscopic
solubility
  water solubility (in words): insoluble in water

## O=C(O)C[C@H](NC(=O)CP(=O)(O)O)C(=O)O [N,N'-dibenzylethylenediamine salt]
solubility; ethanol, preliminary
  solubility in ethanol: soluble in ethanol

## O=C(O)C[C@H](NC(=O)CP(=O)(O)O)C(=O)O [tetrasodium PALA, L-Aspartic acid, N-(phosphonoacetyl)-, tetrasodium salt]
Expected tumor systems
  activity in the expected tumor systems: active in the expected tumor systems
Hygroscopic character
  hygroscopicity (in words): hygroscopic; also recorded: high degree of hygroscopicity
  physical state after moisture uptake: eventually take up enough moisture so as to lose their solid characteristics
Hygroscopic character; tetrasodium versus disodium salt, solvent-free material
  rate of absorption of atmospheric moisture relative to the disodium salt: 1.5 times faster
[1]; formulated in water
  pH when formulated in water: 9.2
[1]; formulated in water, pH 9.2
  physiological acceptability of alkalinity in water: alkaline (pH 9.2) to a degree generally considered harmful physiologically

## O=C(O)C[C@H](NC(=O)CP(=O)(O)O)C(=O)O [PALA, N-(phosphonoacetyl)-L-aspartic acid]
solubility; water
  water solubility (in words): high water solubility
Lewis Lung tumor
  activity against Lewis Lung tumor system: active
[3]
  inhibition of pyrimidine nucleotide biosynthesis in vitro: inhibition of pyrimidine nucleotide biosynthesis in vitro
P388 tumor
  activity against P388 tumor system: active
B16 tumor
  activity against B16 tumor system: active
[4]
  transition state analogue inhibitor of aspartate transcarbamylase: transition state analogue inhibitor of aspartate transcarbamylase

## O=C(CP(=O)(O)O)N[C@@H](CC(=O)OCc1ccccc1)C(=O)OCc1ccccc1 [X]
Tumor systems
  fold less active than tetrasodium PALA: approximately 100 fold
Hygroscopic character
  hygroscopicity (in words): markedly hygroscopic

## O=C(O)C[C@H](NC(=O)CP(=O)(O)O)C(=O)O [cyclohexylamine salt]
Hygroscopic character
  hygroscopicity (in words): completely nonhygroscopic
